Counter-ions that a name gives are not always drawn.
Biological target: T1, γ-Secretase (Homo sapiens, UniProt P49768)
T1 construct: transfected H4 (human neuroglioma) cells stably expressing constructs containing wild-type and mutant forms of β-APP; endogenous in cells; host or cells: H4 human neuroglioma cells, stably transfected with beta-APP (the substrate, not the enzyme)
Experiment: Inhibition of γ-secretase: ELISA of β-AP made by transfected H4 cells in culture
Assay type: cell-based
Details: H4 (human neuroglioma) cells expressing β-APP (Swedish variant typically), approximately 16 hours incubation, β-AP in conditioned medium by ELISA
Description: Production and detection of β-AP made by cells in culture. The use of transfected H4 (human neuroglioma) cells stably expressing constructs containing wild-type and mutant forms of β-APP have been used to identify inhibitors of β-AP production. The Swedish variant of β-APP produces 5-7 fold more β-AP than the wild type and is typically used due to its enhanced signal. […] The capture antibody is typically a mouse monoclonal (IgG1/kβ-APPa). The antibody recognizes the carboxyl terminal epitope of β-AP. The specificity of the capture antibody ensures measurement of β-AP without interference by other secreted β-APP fragments that share amino acid sequence (β-AP1-16) with β-AP. The detecting antibody is typically an affinity purified rabbit polyclonal antibody, specific for the amino terminus of β-AP. In the cell-based assay conditioned medium from H4 cells is tested by ELISA for the quantity of β-AP present. The cell-based assay can be used to identify compounds that inhibit β-AP production. The assay should detect agents that inhibit cleavage at the β-secretase and/or the γ-secretase cleavage site as well as detecting any agent that interferes with the production and/or release of β-AP.
A typical ELISA-based assay requires plating of the transfected cells at a density sufficient for the rapid detection of the secreted β-AP (experimentally predetermined for a particular stable cell population) in a 96-well format. Cells are plated for at least six hours prior to the introduction of the test compound at which time the growth medium is replaced by fresh medium containing the agent to be tested. Test agents may typically consist of synthetic compounds, secondary metabolites from bacterial or fungal fermentation extracts, or extracts from plant or marine samples. All synthetic agents are initially screened at doses ranging from 10-100 μM or in the case of extracts at sufficient dilution to minimize cytotoxicity. Incubation of the cells with the test agent will continue for approximately 16 hours at which time equal aliquots of media from each sample well is removed and placed into a previously prepared ELISA plate for β-AP quantitation. The ELISA is carried out in a manner described by others (Haass, et al., 1992; Hawlow and Lane, 1988) and the β-AP signal quantitated. Results are obtained by analysis of the ELISA plate following development and comparison to the mock treated cell populations and samples in which known amounts of β-AP were added to construct a standard concentration curve. […] If a compound is found to be active, then a dose response experiment is performed to determine the lowest dose of compound necessary to elicit the inhibition of the production of β-AP.

Structure (SMILES) | Activity Rating (Inhibition of γ-Secretase)
CCCCNC(=O)[C@@H](C[C@H](O)[C@H](CC1CCCCC1)NCCCC(C)C)C(C)C (relative stereo) [Example 20, [αS-(αR*,γR*,δR*)]N-Butyl-γ-hydroxy-α-(1-methylethyl)-δ-[(4-methylpentyl)amino]cyclohexanehexanamide hydrochloride] | +++ (+++ < = 10)
CSCCCNC(=O)[C@@H](C[C@H](O)[C@H](CC1CCCCC1)NCCCC(C)C)C(C)C (relative stereo) [Example 32, [αS-(αR*,γR*,δR*)]γ-hydroxy-α-(1-methylethyl)-δ-[(4-methylpentyl)amino]-N-[3-(methylthio)propyl]cyclohexanehexanamide hydrochloride] | +++ (+++ < = 10)
CCCCNC(=O)[C@@H](C[C@H](O)[C@H](CC1CCCCC1)NCCOC(C)C)C(C)C (relative stereo) [Example 39, [αS-(αR*,γR*,δR*)]N-Butyl-γ-hydroxy-δ-[2-(1-methylethoxy)ethyl]amino]-α-(1-methylethyl)cyclohexanehexanamidehydrochloride] | + (+ > 25 & < = 50 μM)
CCCCNC(=O)[C@@H](C[C@H](O)[C@H](CC1CCCCC1)NCCC(C)CC)C(C)C (relative stereo) [Example 33, [αS-(αR*,γR*,δR*)]N-Butyl-γ-hydroxy-α-(1-methylethyl)-δ-[(3-methylpentyl)amino]cyclohexanehexanamide hydrochloride] | +++ (+++ < = 10)
CCCCNC(=O)[C@@H](C[C@H](O)[C@H](CC1CCCCC1)NCc1ccc2ccccc2c1)C(C)C (relative stereo) [Example 38, [αS-(αR*,γR*,δR*)]N-Butyl-γ-hydroxy-α-(1-methylethyl)-δ-[[(2-naphthyl)methyl]amino]cyclohexanehexanamide hydrochloride] | + (+ > 25 & < = 50 μM)
CCCCNC(=O)[C@H](C)C[C@H](O)[C@H](CC1CCCCC1)NCCCC(C)C (relative stereo) [Example 19, [αS-(αR*,γR*,δR*)]N-Butyl-γ-hydroxy-α-methyl-δ-[(4-methylpentyl)amino]cyclohexanehexanamide hydrochloride] | +++ (+++ < = 10)
CCCCNC(=O)[C@@H](C[C@H](O)[C@H](CC1CCCCC1)NCCCCC(C)C)C(C)C (relative stereo) [Example 34, [αS-(αR*,γR*,δR*)]N-Butyl-γ-hydroxy-α-(1-methylethyl)-δ-[(5-methylhexyl)amino]cyclohexanehexanamide hydrochloride] | +++ (+++ < = 10)
CCCCNC(=O)[C@H](CC1CCCCC1)C[C@H](O)[C@H](CC1CCCCC1)NCCCC(C)C (relative stereo) [Example 26, [αS-(αR*,γR*,δR*)]-N-Butyl-α-(cyclohexylmethyl)-γ-hydroxy-δ-[(4-methylpentyl)amino]cyclohexanehexanamide, hydrochloride] | +++ (+++ < = 10)
CC(C)=CCCN[C@@H](CC1CCCCC1)[C@@H](O)C[C@H](C(=O)NCC(C)C)C(C)C (relative stereo) [Example 49, [αS(αR*,γR*,δR*)]-γ-hydroxy-α-(1-methylethyl)-δ-[(4-methyl-3-pentenyl)amino]-N -(2-methylpropyl)cyclohexanehexanamide] | +++ (+++ < = 10)
CC(C)CCCN[C@@H](CC1CCCCC1)[C@@H](O)C[C@H](C(=O)N[C@H](C)c1ccccc1)C(C)C (relative stereo) [Example 28, [αS-(αR*,γR*,δR*,N-(1S*))]γ-hydroxy-α-(1-methylethyl)-δ-[(4-methylpentyl)amino]-N-(1-phenylethyl)cyclohexanehexanamide hydrochloride] | +++ (+++ < = 10)
CC(C)CCCN[C@@H](CC1CCCCC1)[C@@H](O)C[C@H](C(=O)NCC(C)C)C(C)C (relative stereo) [Example 30, [αS-(αR*,γR*,δR*)]γ-hydroxy-α-(1-methylethyl)-δ-[(4-methylpentyl)amino]-N-(2-methylpropyl)cyclohexanehexanamide hydrochloride] | +++ (+++ < = 10)
CCCCNC(=O)[C@H](Cc1ccccc1)C[C@H](O)[C@H](CC1CCCCC1)NCCCC(C)C (relative stereo) [Example 25, [αS-(αR*,γR*,δR*)]N-Butyl-γ-hydroxy-δ-[(4-methylpentyl)amino]-α-(phenylmethyl)cyclohexanehexanamide hydrochloride] | +++ (+++ < = 10)
CC(C)CCC(C)N[C@@H](CC1CCCCC1)[C@@H](O)C[C@H](C(=O)NCC(C)C)C(C)C (relative stereo) [Example 41, [αS(αR*,γR*,δR*)]-γ-Hydroxy-δ-[(1,4-dimethylpentyl)amino]-α-(1-methylethyl)-N-(2-methylpropyl)cyclohexanehexanamide hydrochloride] | +++ (+++ < = 10)
CC(C)CCCN[C@@H](CC1CCCCC1)[C@@H](O)C[C@H](C(=O)NCC(C)(C)C)C(C)C (relative stereo) [Example 31, [αS-(αR*,γR*,δR*)]N-(2,2-dimethylpropyl)-γ-hydroxy-α-(1-methylethyl)-δ-[(4-methylpentyl)amino]cyclohexanehexanamide hydrochloride] | +++ (+++ < = 10)
CCCCNC(=O)[C@H](CC(C)C)C[C@H](O)[C@H](CC1CCCCC1)NCCCC(C)C (relative stereo) [Example 22, [αS-(αR*,γR*,δR*)]N-Butyl-γ-hydroxy-δ-[(4-methylpentyl)amino]-α-(2-methylpropyl)cyclohexanehexanamide hydrochloride] | +++ (+++ < = 10)
CCCCCN[C@@H](CC1CCCCC1)[C@@H](O)C[C@H](C(=O)NCCCC)C(C)C (relative stereo) [Example 45, [αS(αR*,γR*,δR*)]-N-Butyl-γ-hydroxy-α-(1-methylethyl)-δ-(pentylamino)cyclohexanehexanamide hydrochloride] | +++ (+++ < = 10)
CCCCNC(=O)[C@@H](C[C@H](O)[C@H](CC1CCCCC1)NCCC(C)C)C(C)C (relative stereo) [Example 35, [αS-(αR*,γR*,δR*)]N-Butyl-γ-hydroxy-δ-[(3-methylbutyl)amino]-α-(1-methylethyl)cyclohexanehexanamide hydrochloride] | +++ (+++ < = 10)
CCCCNC(=O)[C@@H](C[C@H](O)[C@H](CC1CCCCC1)NCc1cccc(C)c1)C(C)C (relative stereo) [Example 36, [αS-(αR*,γR*,δR*)]N-Butyl-γ-hydroxy-α-(1-methylethyl)-δ-[[(3-methylphenyl)methyl]amino]cyclohexanehexanamidehydrochloride] | +++ (+++ < = 10)
CCCCNC(=O)[C@@H](C[C@H](O)[C@H](CC1CCCCC1)NCCCC1CC1)C(C)C (relative stereo) [Example 46, [αS(αR*,γR*,δR*)]-N-Butyl-δ-[(3-cyclopropyl)propyl]amino-γ-hydroxy-α-(1-methylethyl)cyclohexanehexanamide hydrochloride] | +++ (+++ < = 10)
CC(C)CNC(=O)[C@@H](C[C@H](O)[C@H](CC1CCCCC1)NC1CCC(C)C1)C(C)C (relative stereo) [Example 43, [αS(αR*,γR*,δR*)]-γ-Hydroxy-δ-[(3-methylcyclopentyl)amino]-α-(1-methylethyl)-N-(2-methylpropyl)cyclohexanehexanamide] | +++ (+++ < = 10)
CC(C)CNC(=O)[C@@H](C[C@H](O)[C@H](CC1CCCCC1)NC1CCCC(C)C1)C(C)C (relative stereo) [Example 42, [αS(αR*,γR*,δR*)]-γ-Hydroxy-δ-[(3-methylcyclohexyl)amino]-α-(1-methylethyl)-N-(2-methylpropyl)cyclohexanehexanamide] | +++ (+++ < = 10)
CCCCNC(=O)[C@@H](C[C@H](O)[C@H](CC1CCCCC1)NCCCC1CCCC1)C(C)C (relative stereo) [Example 47, [αS(αR*,γR*,δR*)]-N-Butyl-δ-[(3-cyclopentyl)propyl]amino-γ-hydroxy-α-(1-methylethyl)cyclohexanehexanamide hydrochloride] | +++ (+++ < = 10)
